Source: US4965280A, “Antifungal carbinols” (E. I. Du Pont de Nemours and Company, priority 1989, dated 1990)
Converted amounts (≈) assume the structure as drawn. Read-outs that look alike come from different tables or passages of the source.

Experiments:
[1] = tested on: Sclerotium rolfsii; assay: Example M southern blight; assay type: in vivo; settings: Agroathelia rolfsii, 336 h; 5 kg/ha; read-out: disease control rating, Ex. M
Description: […] Seeds and soil were then inoculated with a mixture of sand, cereal and mycelium of the fungus Sclerotium rolfsii, causal agent of sourthern blight, and incubated in a growth chamber at 30° C. for 14 days. Disease ratings were then made.

[2] = tested on: Phytophthora infestans; assay: whole plant or invertebrate; assay type: in vivo; settings: Phytophthora infestans, in Solanum lycopersicum, read-out: disease control rating, Ex. H, 100 PPM
[3] = tested on: Pyricularia oryzae; assay: whole plant or invertebrate; assay type: in vivo; settings: Pyricularia oryzae, 120 h; for pest or weed control at 100 ppm: read-out: disease control rating, Ex. E, 100 PPM; for pest or weed control at 20 ppm: read-out: disease control rating, Ex. E, 20 PPM
[4] = tested on: Puccinia recondita; assay: Example G wheat leaf rust; assay type: in vivo; settings: read-out: disease control rating, Ex. G
[5] = tested on: Botrytis cinerea; assay: Example C bean grey mold; assay type: in vivo; settings: Botrytis cinerea, 24 h, read-out: disease control rating, Ex. C
Outline: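 At 20 or 100 ppm, each compound was applied as an aqueous suspension (acetone 6% final; TREM 014 250 ppm) sprayed onto young broad bean plants to the point of run-off.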

[6] = tested on: Pythium aphanadermatum; assay: Example J cucumber damping off; assay type: in vivo; settings: Pythium, 336 h; 5 kg/ha; read-out: disease control rating, Ex. J
Outline: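 Seeds and soil were inoculated with a mix of sand, cereal and Pythium aphanadermatum mycelium, the fungus responsible for cucumber damping off. They were kept in a growth chamber at 30° C. for 14 days, and disease was then rated to assess control.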

[7] = tested on: Plasmorpara viticola; assay: Example I grape downy mildew; assay type: in vivo; settings: read-out: disease control rating, Ex. I
Outline: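 Compounds were dissolved in acetone (6% of final volume) and suspended at 100 or 20 ppm in purified water with 250 ppm TREM 014 surfactant (polyhydric alcohol esters). Grape seedlings were sprayed with this suspension to run-off.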

[8] = tested on: Rhizoctonia solani; assay: Example K cotton blight; assay type: in vivo; settings: 336 h, 5 kg/ha, read-out: disease control rating, Ex. K
Description: […] Seeds and soil were then inoculated with a mixture of sand, cereal and mycelium of the fungus Rhizoctonia solani, causal agent of cotton blight, and incubated in a growth chamber at 30° C. for 14 days. Disease ratings were then made.

[9] = tested on: Candida albicans ATCC 11651; assay: In vitro antifungal MIC, microtiter broth dilution; settings: Candida albicans, ATCC11651, 24 h, read-out: MIC values, C. albicans, 30°, 24 hours
[10] = tested on: Rhizoctonia solani; assay: Example F rice sheath blight; assay type: in vivo; settings: Rhizoctonia solani, 144 h, read-out: disease control rating, Ex. F
Outline: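 Application rates were 100 or 20 ppm, delivered as a foliar spray to the point of run-off on rice seedlings. The formulation used 6% acetone in water with 250 ppm surfactant.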

[11] = tested on: Fusarium oxysporum f. sp. cucumerinum; assay: Example L cucumber wilt; assay type: in vivo; settings: 336 h, 5 kg/ha, read-out: disease control rating, Ex. L
Description: […] Seeds and soil were then inoculated with a mixture of sand, cereal and mycelium of the fungus Fusarium oxysporum f. sp. cucumerinum, causal agent of cucumber wilt, and incubated in a growth chamber at 30° C. for 14 days. Disease ratings were then made.

[12] = tested on: Aspergillus fumigatus ATCC 28214; assay: In vitro antifungal MIC, microtiter broth dilution; settings: Aspergillus fumigatus, ATCC28214, 24 h, read-out: MIC values, A. fumigatus, 30°, 24 hours
Description: In vitro activity (Table 5) is expressed in terms of the minimal inhibitory concentration (MIC) of the test compound which inhibits the growth of yeasts and fungi.
The target organisms, Candida albicans ATCC 11651 and Aspergillus fumigatus ATCC 28214 are standardized, [V. Bezjak, J. Clinical Micro., 21 509-512 (1984)], to a concentration of 10^7 organisms/ml and maintained at -70° until use. Test compounds are solubilized in dimethyl sulfoxide (DMSO) and diluted in Eagle's Minimum Essential Medium (EMEM) broth to achieve a final concentration of 200 μg/ml. Stock solutions of standard antifungal agents are stored at -70° and diluted in EMEM as required.
The in vitro assay utilizes a microtiter broth dilution technique [L. Polonelli and G. Morace, Mycopathologia, 86, 21-28 (1984)] and C. […] The appropriate wells are inoculated with the required organism (C. albicans at 1×10^4 organisms/ml and A. fumigatus at 5×10^5 organisms/ml) and the assay incubated at 30° for 24 hours.

[13] = tested on: Erysiphe graminis f. sp. tritici; assay: Example D wheat powdery mildew; assay type: in vivo; settings: Blumeria graminis, 144 h, read-out: disease control rating, Ex. D
Outline: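 First, compound taken up in acetone, 6% of the end volume. Next, suspended in water with 250 ppm polyhydric alcohol esters at 100 or 20 ppm. Last, applied to wheat seedlings until run-off.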

[14] = tested on: Candida albicans ATCC 11651; assay: In vivo systemic Candida infection in mice, primary assay; parameters: species or system Candida albicans; CF-1 female mice; settings: Candida albicans, 150 mg/kg per day, read-out: % Survival
Outline: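 CF-1 female mice (20 g, 10 per group) were infected IV with 0.2 ml of 1×10^7/ml C. albicans ATCC 11651, then given test compound subcutaneously at 50 or 150 mg/kg/day at 1 and 6 h post-infection and once daily for three more days. Survival was followed for 21 days against infected untreated mice; ≥70% protection at 14 days was scored active.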

[15] = tested on: Cercosporidium personatum; assay: Example B Peanut Late Leafspot; assay type: in vivo; settings: Nothopassalora personata, read-out: disease control rating, Ex. B
Outline: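 Dose 100 or 20 ppm; vehicle acetone 6% v/v final in water + 250 ppm surfactant; applied by spraying peanut seedlings to run-off.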

[16] = tested on: Venturia inaequalis; assay: Example A apple scab; assay type: in vivo; settings: read-out: disease control rating, Ex. A
Outline: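 First, compounds are taken up in acetone amounting to 6% of the final volume. Next, they are suspended in purified water with 250 ppm TREM 014 at 100 or 20 ppm. Finally, seedlings of apple are sprayed until run-off.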

Compound | pest or weed control at 5000 g/ha [1] | pest or weed control at 100 ppm [2] | pest or weed control at 100 ppm [3] | pest or weed control at 100 ppm [4] | pest or weed control at 100 ppm [5] | pest or weed control at 5000 g/ha [6] | pest or weed control at 100 ppm [7] | pest or weed control at 5000 g/ha [8] | MIC [9] | pest or weed control at 100 ppm [10] | pest or weed control at 5000 g/ha [11] | MIC [12] | pest or weed control at 100 ppm [13] | responders at 150 mg/kg ([14]; ATCC11651, 168 h, day 7) | responders at 150 mg/kg ([14]; ATCC11651, 336 h, day 14) | responders at 150 mg/kg ([14]; ATCC11651, 504 h, day 21) | pest or weed control at 100 ppm [15] | pest or weed control at 100 ppm [16] | also measured
C=C(c1ccc(F)cc1)C(O)(Cn1cncn1)c1ccc(-c2ccccc2)cc1 (stereo not shown) [Example 657] | 0% | 24% | 49% | 100% | 81% | 0% | 37% | 0% | 0.4 µg/mL (≈ 1.04 µM) | 97% | 0% | 100 µg/mL (≈ 259 µM) | 98% | 0% | 0% | 0% | 100% | 62% | 
C=CCOC(Cn1cncn1)(C(=C)c1ccc(F)cc1)c1ccc(F)cc1 (stereo not shown) [Example 360] | 0% | 0% | 74% | 93% | 71% | 0% | 0% | 0% | 0.8 µg/mL (≈ 2.18 µM) | 49% | 0% | 100 µg/mL (≈ 272 µM) | 86% | 100% | 60% | 40% | 100% | 88% | 
C=C(c1ccc(F)cc1)C(O)(Cn1cncn1)c1ccc(Cl)c(Cl)c1 (stereo not shown) [Example 651, 2-(3,4-Dichlorophenyl)-3-(4-fluorophenyl)-1-(1H-1,2,4-triazol-1-yl)-3-buten-2-ol] | 0% | 0% | 0% |  | 42% | 0% | 46% | 0% | 0.8 µg/mL (≈ 2.12 µM) | 62% | 0% | 100 µg/mL (≈ 264 µM) |  | 100% | 50% | 20% |  |  | pest or weed control at 20 ppm [3]: 0%; pest or weed control at 20 ppm [4]: 100%; pest or weed control at 20 ppm [5]: 7%; pest or weed control at 20 ppm [10]: 0%; pest or weed control at 20 ppm [13]: 67%; pest or weed control at 20 ppm [15]: 0%; pest or weed control at 20 ppm [16]: 67%
C=C(c1cccc(Cl)c1)C(O)(Cn1cncn1)c1ccc(Cl)c(Cl)c1 (stereo not shown) [Example 905] | 0% | 0% | 0% |  | 19% | 0% | 87% | 0% | 0.04 µg/mL (≈ 0.101 µM) | 37% | 0% | 100 µg/mL (≈ 253 µM) |  | 80% | 50% | 20% |  |  | pest or weed control at 20 ppm [3]: 0%; pest or weed control at 20 ppm [4]: 16%; pest or weed control at 20 ppm [5]: 15%; pest or weed control at 20 ppm [10]: 0%; pest or weed control at 20 ppm [13]: 47%; pest or weed control at 20 ppm [15]: 0%; pest or weed control at 20 ppm [16]: 7%
C=C(c1ccc(Cl)cc1)C(O)(Cn1cncn1)c1ccc(F)cc1F (stereo not shown) [Example 28, 2-(2,4-Difluorophenyl)-3-(4-chlorophenyl)-1-(1H-1,2,4-triazol-1-yl)-3-buten-2-ol] | 0% | 0% | 81% | 100% | 88% | 0% | 6% | 0% | 0.03 µg/mL (≈ 0.0829 µM) | 100% | 0% | 1.6 µg/mL (≈ 4.42 µM) | 98% | 100% | 90% |  | 100% | 89% | 
C=C(c1ccccc1Cl)C(O)(Cn1cncn1)c1ccc(Cl)cc1 (stereo not shown) [Example 34] | 0% | 0% | 86% | 66% | 94% | 0% | 0% | 0% | 0.03 µg/mL (≈ 0.0833 µM) | 16% | 0% | 3.2 µg/mL (≈ 8.88 µM) | 60% | 100% | 100% | 100% | 100% | 69% | 
C=C(c1cccc2ccccc12)C(O)(Cn1cncn1)c1ccc(F)cc1 (stereo not shown) [Example 208] | 0% | 0% | 4% | 97% | 83% | 0% | 74% | 0% | 1.6 µg/mL (≈ 4.45 µM) | 61% | 0% | 50 µg/mL (≈ 139 µM) | 76% | 0% | 0% | 0% | 37% | 84% | 
C=C(c1cccc(Cl)c1)C(O)(Cn1cncn1)c1ccc(Cl)cc1Cl (stereo not shown) [Example 40, 2-(2,4-Dichlorophenyl)-3-(3-chlorophenyl)-1-(1H-1,2,4-triazol-1-yl)-3-buten-2-ol] | 0% | 0% | 7% | 96% | 80% | 0% | 0% | 0% | 0.4 µg/mL (≈ 1.01 µM) | 61% | 0% | 3.2 µg/mL (≈ 8.11 µM) | 91% | 100% | 100% |  | 100% | 19% | 
